Where a SMILES comes first, the peptide text is derived from it.
How the values were obtained:
[1] = molecular target: T1, Dickkopf-related protein 1 (Homo sapiens, UniProt O94907); experiment: Inhibition of biotin-labeled human recombinant DKK1 assessed as reduction in DKK1 interaction with LRP-6/Fc incubated overnight by chemiluminescence based Alpha-screen assay
T1 sequence (O94907 whole entry): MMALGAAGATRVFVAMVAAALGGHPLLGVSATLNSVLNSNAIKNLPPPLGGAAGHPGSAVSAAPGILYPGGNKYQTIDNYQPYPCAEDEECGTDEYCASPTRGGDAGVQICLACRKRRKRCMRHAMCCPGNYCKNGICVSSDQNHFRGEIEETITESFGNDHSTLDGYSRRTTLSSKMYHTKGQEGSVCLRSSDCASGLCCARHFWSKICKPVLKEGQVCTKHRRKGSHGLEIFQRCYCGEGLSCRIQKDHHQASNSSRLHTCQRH

[2] = molecular target: T2, Dickkopf WNT-signaling pathway inhibitor 1 (Rattus norvegicus, UniProt A6I0Z0); experiment: Inhibition of biotin-labeled rat recombinant DKK1 assessed as reduction in DKK1 interaction with LRP-6/Fc incubated overnight by chemiluminescence based Alpha-screen assay
T2 sequence (A6I0Z0 whole entry): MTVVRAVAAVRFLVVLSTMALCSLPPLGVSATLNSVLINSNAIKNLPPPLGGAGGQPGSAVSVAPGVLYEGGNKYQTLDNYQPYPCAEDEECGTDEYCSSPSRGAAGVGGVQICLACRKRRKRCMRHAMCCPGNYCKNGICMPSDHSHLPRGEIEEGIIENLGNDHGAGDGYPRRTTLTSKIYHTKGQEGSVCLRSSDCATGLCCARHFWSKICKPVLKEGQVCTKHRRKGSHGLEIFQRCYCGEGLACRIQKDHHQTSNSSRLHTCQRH

SMILES | IC50 [1] [nM] | IC50 [2] [nM]
CSCC[C@H](NC(=O)[C@H](CS)NC(=O)[C@H](CCC(N)=O)NC(=O)[C@H](Cc1ccccc1)NC(=O)[C@H](Cc1ccc(O)cc1)NC(=O)[C@H](CO)NC(=O)[C@H](C)NC(=O)[C@@H]1CCCN1C(=O)[C@@H](N)CS)C(=O)N[C@@H](CC(N)=O)C(=O)N[C@@H](Cc1cnc[nH]1)C(=O)N[C@@H](CC(N)=O)C(=O)N[C@@H](Cc1cnc[nH]1)C(=O)N[C@@H](CS)C(=O)N[C@@H](Cc1ccc(O)cc1)C(=O)N1CCC[C@H]1C(=O)N[C@@H](CCSC)C(=O)N[C@@H](CCC(=O)O)C(=O)N[C@@H](Cc1c[nH]c2ccccc12)C(=O)N[C@@H](CCCNC(=N)N)C(=O)N[C@@H](CS)C(=O)N[C@@H](CC(=O)O)C(=O)NCC(=O)N[C@@H](Cc1ccccc1)C(=O)N1CCC[C@H]1C(=O)N[C@@H](CC(=O)O)C(=O)N[C@@H](CS)C(=O)N[C@@H](CCC(=O)O)C(=O)N[C@@H](CC(=O)O)C(=O)NCC(=O)N[C@@H](CO)C(=O)N[C@@H](CC(=O)O)C(=O)N[C@@H](CCC(=O)O)C(=O)N[C@@H](CCCCN)C(=O)NCC(=O)N[C@@H](CS)C(=O)N1CCC[C@H]1C(=O)N[C@@H](Cc1ccc(O)cc1)C(=O)N[C@@H](CCCNC(=N)N)C(=O)N[C@H](C(=O)O)[C@@H](C)O (H-CPASYFQCMNHNHCYPMEWRCDGFPDCEDGSDEKGCPYRT-OH) | ≤ 1 | ≤ 1
CSCC[C@H](NC(=O)[C@@H]1CCCN1C(=O)[C@H](Cc1ccc(O)cc1)NC(=O)[C@H](CS)NC(=O)[C@H](Cc1cnc[nH]1)NC(=O)[C@H](CCCCN)NC(=O)[C@H](Cc1ccccc1)NC(=O)[C@H](CC(N)=O)NC(=O)[C@H](Cc1c[nH]c2ccccc12)NC(=O)[C@H](CS)NC(=O)[C@H](CCC(N)=O)NC(=O)[C@H](Cc1ccccc1)NC(=O)[C@H](Cc1ccc(O)cc1)NC(=O)[C@H](CO)NC(=O)[C@H](C)NC(=O)[C@@H]1CCCN1C(=O)[C@@H](N)CS)C(=O)N[C@@H](CCC(=O)O)C(=O)N[C@@H](Cc1c[nH]c2ccccc12)C(=O)N[C@@H](CCCNC(=N)N)C(=O)N[C@@H](CS)C(=O)N[C@@H](CC(=O)O)C(=O)NCC(=O)N[C@@H](Cc1ccccc1)C(=O)N[C@@H](CC(N)=O)C(=O)N[C@@H](CC(=O)O)C(=O)N[C@@H](CS)C(=O)N[C@H](C(=O)N[C@@H](CC(=O)O)C(=O)NCC(=O)N[C@@H](CO)C(=O)N[C@@H](CC(=O)O)C(=O)N[C@@H](CCC(=O)O)C(=O)N[C@@H](CCCCN)C(=O)NCC(=O)N[C@@H](CS)C(=O)N1CCC[C@H]1C(=O)N[C@@H](Cc1ccc(O)cc1)C(=O)N[C@@H](CCCNC(=N)N)C(=O)N[C@H](C(=O)O)[C@@H](C)O)C(C)C (H-CPASYFQCWNFKHCYPMEWRCDGFNDCVDGSDEKGCPYRT-OH) | ≤ 1 | ≤ 1
CSCC[C@H](NC(=O)[C@H](Cc1ccccc1)NC(=O)[C@H](CCC(=O)O)NC(=O)[C@H](Cc1ccc(O)cc1)NC(=O)[C@H](CO)NC(=O)[C@@H]1CCCN1C(=O)[C@@H](N)CS)C(=O)N[C@@H](CS)C(=O)N[C@@H](C)C(=O)N[C@@H](CC(=O)O)C(=O)N[C@@H](CCCCN)C(=O)N[C@@H](CCSC)C(=O)N[C@@H](CS)C(=O)N[C@@H](Cc1ccccc1)C(=O)N1CCC[C@H]1C(=O)N[C@@H](CC(C)C)C(=O)N[C@@H](CO)C(=O)N[C@@H](Cc1ccccc1)C(=O)N[C@@H](CC(C)C)C(=O)N[C@@H](CS)C(=O)N[C@@H](CC(=O)O)C(=O)NCC(=O)N[C@@H](CCC(=O)O)C(=O)N[C@@H](CC(N)=O)C(=O)N[C@@H](CC(=O)O)C(=O)N[C@@H](CS)C(=O)N[C@@H](CCC(=O)O)C(=O)N[C@@H](CC(=O)O)C(=O)NCC(=O)N[C@@H](CO)C(=O)N[C@@H](CC(=O)O)C(=O)N[C@@H](CCC(=O)O)C(=O)N[C@@H](CC(=O)O)C(=O)N[C@@H](Cc1ccc(O)cc1)C(=O)N[C@@H](CS)C(=O)N1CCC[C@H]1C(=O)N[C@@H](CO)C(=O)N[C@@H](CCCNC(=N)N)C(=O)N[C@H](C(=O)O)[C@@H](C)O (H-CPSYEFMCADKMCFPLSFLCDGENDCEDGSDEDYCPSRT-OH) | ≤ 1 | ≤ 1

Next, values leading:

IC50 [1] [nM] | IC50 [2] [nM] | SMILES
≤ 1 | ≤ 1 | CSCC[C@H](NC(=O)[C@@H]1CCCN1C(=O)[C@H](Cc1ccc(O)cc1)NC(=O)[C@H](CS)NC(=O)[C@H](Cc1cnc[nH]1)NC(=O)[C@H](CC(N)=O)NC(=O)[C@H](CCCCN)NC(=O)[C@H](CC(N)=O)NC(=O)[C@H](CCCNC(=N)N)NC(=O)[C@H](CS)NC(=O)[C@H](CCCCN)NC(=O)[C@H](Cc1ccccc1)NC(=O)[C@H](Cc1ccc(O)cc1)NC(=O)[C@H](CO)NC(=O)[C@@H](NC(=O)[C@@H]1CCCN1C(=O)[C@@H](N)CS)C(C)C)C(=O)N[C@@H](CCC(=O)O)C(=O)N[C@@H](Cc1c[nH]c2ccccc12)C(=O)N[C@@H](CCCNC(=N)N)C(=O)N[C@@H](CS)C(=O)N[C@@H](CC(=O)O)C(=O)NCC(=O)N[C@@H](Cc1ccccc1)C(=O)N1CCC[C@H]1C(=O)N[C@@H](CC(=O)O)C(=O)N[C@@H](CS)C(=O)N[C@@H](CCC(=O)O)C(=O)N[C@@H](CC(=O)O)C(=O)NCC(=O)N[C@@H](CO)C(=O)N[C@@H](CC(=O)O)C(=O)N[C@@H](CCC(=O)O)C(=O)N[C@@H](CCCCN)C(=O)NCC(=O)N[C@@H](CS)C(=O)N1CCC[C@H]1C(=O)N[C@@H](Cc1ccc(O)cc1)C(=O)N[C@@H](CCCNC(=N)N)C(=O)N[C@H](C(=O)O)[C@@H](C)O (H-CPVSYFKCRNKNHCYPMEWRCDGFPDCEDGSDEKGCPYRT-OH)
≤ 1 | ≤ 1 | CSCC[C@H](NC(=O)[C@@H]1CCCN1C(=O)[C@H](Cc1ccc(O)cc1)NC(=O)[C@H](CS)NC(=O)[C@H](Cc1cnc[nH]1)NC(=O)[C@@H]1CCCN1C(=O)[C@H](Cc1cnc[nH]1)NC(=O)[C@H](CCCCN)NC(=O)[C@H](CC(C)C)NC(=O)[C@H](CS)NC(=O)[C@H](CCC(N)=O)NC(=O)[C@H](Cc1ccccc1)NC(=O)[C@H](Cc1ccc(O)cc1)NC(=O)[C@H](CO)NC(=O)[C@H](C)NC(=O)[C@@H]1CCCN1C(=O)[C@@H](N)CS)C(=O)N[C@@H](CCC(=O)O)C(=O)N[C@@H](Cc1c[nH]c2ccccc12)C(=O)N[C@@H](CCCNC(=N)N)C(=O)N[C@@H](CS)C(=O)N[C@@H](CC(=O)O)C(=O)NCC(=O)N[C@@H](Cc1ccccc1)C(=O)N[C@@H](CC(=O)O)C(=O)N[C@@H](CC(=O)O)C(=O)N[C@@H](CS)C(=O)N[C@@H](CCC(=O)O)C(=O)N[C@@H](CC(=O)O)C(=O)NCC(=O)N[C@@H](CO)C(=O)N[C@@H](CC(=O)O)C(=O)N[C@@H](CCC(=O)O)C(=O)N[C@H](C(=O)NCC(=O)N[C@@H](CS)C(=O)N1CCC[C@H]1C(=O)N[C@@H](Cc1ccc(O)cc1)C(=O)N[C@@H](CCCNC(=N)N)C(=O)N[C@H](C(=O)O)[C@@H](C)O)[C@@H](C)O (H-CPASYFQCLKHPHCYPMEWRCDGFDDCEDGSDETGCPYRT-OH)

From ChEMBL document CHEMBL4417633, “Inhibitory polypeptides specific to WNT inhibitors” (2017)
